Source: patent US10526345B2, “Compounds as GPR119 agonists” (Mankind Pharma Ltd., priority 2016, dated 2020)

Each molecule was assayed against T1, hGPR119 (Homo sapiens, UniProt Q8TDV5) (assay: In vitro cyclic AMP assay (Cisbio dynamic 2 HTRF kit) in CHO-hGPR119 cells). Conditions: 1 h, cAMP, compound at 1 μM, 60 min, read-out: Induction (% induction at 1 μM).
T1 construct: expressed in transfected cells; host or cells: CHO
T1 sequence (Q8TDV5 1-335): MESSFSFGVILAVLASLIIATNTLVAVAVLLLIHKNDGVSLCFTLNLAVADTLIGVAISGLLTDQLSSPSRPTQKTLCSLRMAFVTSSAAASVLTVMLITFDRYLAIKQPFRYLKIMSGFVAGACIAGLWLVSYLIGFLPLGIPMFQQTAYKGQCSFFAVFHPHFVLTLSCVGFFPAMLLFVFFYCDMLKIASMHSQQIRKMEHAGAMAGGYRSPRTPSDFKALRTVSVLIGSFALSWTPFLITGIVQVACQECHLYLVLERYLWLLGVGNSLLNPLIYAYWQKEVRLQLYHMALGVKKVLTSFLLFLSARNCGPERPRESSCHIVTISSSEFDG
Type: cell-based
Procedure: cAMP measurements were done using Cisbio dynamic 2 HTRF kit according to the manufacturer's protocol. Briefly, CHO-hGPR119 cells were plated at a cell density of 5000 cells/well/5 μl into a white small volume 384 well plate. The final concentrations of IBMX and DMSO used were 1 mM and 0.5% respectively. Cells were treated with various concentrations of the test compound for 60 min at room temperature. Cells were lysed by buffer containing Anti-cAMP antibody and d2-cAMP reagents and incubated for 1 hour at room temperature. HTRF was measured at 337 nm excitation and emission wavelengths of 665 nm and 620 nm on a microplate reader (Flurostar, BMG Labtech). Graphpad prism software was utilized for EC50 determinations.

| activation at 1 µM | Structure (SMILES) |
| --- | --- |
| 5% | CC(C)c1noc(N2CCC(OC(C)c3nc4ccc(-c5ccc(S(C)(=O)=O)cc5)nc4s3)CC2)n1 (stereo not drawn) [Compound 1130, 3-isopropyl-5-(4-(1-(5-(4-(methylsulfonyl)phenyl)thiazolo[5,4-b]pyridin-2-yl)ethoxy)piperidin-1-yl)-1,2,4-oxadiazole] |
| 2% | CC(Oc1nc2ccc(-c3ccc(S(C)(=O)=O)cc3)nc2s1)C1CCN(C(=O)OC2(C)CC2)CC1 (stereo not drawn) [Compound 1117, 1-methylcyclopropyl 4-(1-((5-(4-(methylsulfonyl)phenyl)thiazolo[5,4-b]pyridin-2-yl)oxy)ethyl)piperidine-1-carboxylate] |
| 5% | CCc1cnc(N2CCC(C(=O)Nc3nc4ccc(-c5ccc(S(C)(=O)=O)cc5)nc4s3)CC2)nc1 [Compound 1014, 1-(5-ethylpyrimidin-2-yl)-N-(5-(4-(methylsulfonyl)phenyl)thiazolo[5,4-b]pyridin-2-yl)piperidine-4-carboxamide] |
| 39% | CC(C)c1noc(N2CCC(Oc3nc4ccc(-c5ccc(S(C)(=O)=O)cc5)nc4s3)CC2)n1 [Compound 1007, 3-isopropyl-5-(4-((5-(4-(methylsulfonyl)phenyl)thiazolo[5,4-b]pyridin-2-yl)oxy)piperidin-1-yl)-1,2,4-oxadiazole] |
| 0% | CC(C)OC(=O)N1CCC(N(C)c2nc3ccc(-c4ccc(S(C)(=O)=O)cc4)nc3s2)CC1 [Compound 1016, isopropyl 4-(methyl(5-(4-(methylsulfonyl)phenyl)thiazolo[5,4-b]pyridin-2-yl)amino)piperidine-1-carboxylate] |
| 4% | CC(CC1CCN(c2nc(C(C)C)no2)CC1)Oc1nc2ccc(-c3ccc(S(C)(=O)=O)cc3)nc2s1 (stereo not drawn) [Compound 1043, 3-isopropyl-5-(4-(2-((5-(4-(methylsulfonyl)phenyl)thiazolo[5,4-b]pyridin-2-yl)oxy)propyl)piperidin-1-yl)-1,2,4-oxadiazole] |
| 70% | CC(Oc1nc2ccc(-c3ccc(S(C)(=O)=O)cc3)nc2s1)C1CCN(c2cnc(Cl)cn2)CC1 (stereo not drawn) [Compound 1148, 2-(1-(1-(5-chloropyrazin-2-yl)piperidin-4-yl)ethoxy)-5-(4-(methylsulfonyl)phenyl)thiazolo[5,4-b]pyridine] |
| 30% | COCCNS(=O)(=O)c1ccc(-c2ccc3nc(OC(C)C4CCN(c5nc(C(C)C)no5)CC4)sc3n2)cc1 (stereo not drawn) [Compound 1066, 4-(2-(1-(1-(3-isopropyl-1,2,4-oxadiazol-5-yl)piperidin-4-yl)ethoxy)thiazolo[5,4-b]pyridin-5-yl)-N-(2-methoxyethyl)benzenesulfonamide] |

Second part, the molecule before the results:

| Structure (SMILES) | activation at 1 µM |
| --- | --- |
| CC(C)c1noc(N2CCC(C(Oc3nc4ccc(-c5ccnc(F)c5)nc4s3)C(F)(F)F)CC2)n1 (stereo not drawn) [Compound 1103, 3-isopropyl-5-(4-(2,2,2-trifluoro-1-((5-(2-fluoropyridin-4-yl)thiazolo[5,4-b]pyridin-2-yl)oxy)ethyl)piperidin-1-yl)-1,2,4-oxadiazole] | 63% |
| CS(=O)(=O)c1ccc(-c2nc3ccc(OCC4CCN(Cc5ccccc5)CC4)nc3s2)cc1 [Compound 1009, 5-((1-benzylpiperidin-4-yl)methoxy)-2-(4-(methyslulfonyl)phenyl)thiazolo[5,4-b]pyridine] | 5% |
| CC(C=C1CCN(c2nc(C(C)C)no2)CC1)Oc1nc2ccc(-c3ccc(S(C)(=O)=O)cc3)nc2s1 (stereo not drawn) [Compound 1044, 3-isopropyl-5-(4-(2-((5-(4-(methylsulfonyl)phenyl)thiazolo[5,4-b]pyridin-2-yl)oxy)propylidene)piperidin-1-yl)-1,2,4-oxadiazole] | 3% |
| CC(C)c1noc(N2CCC(C(C)Oc3nc4ccc(-c5cnoc5)nc4s3)CC2)n1 (stereo not drawn) [Compound 1122, 3-isopropyl-5-(4-(1-((5-(isoxazol-4-yl)thiazolo[5,4-b]pyridin-2-yl)oxy)ethyl)piperidin-1-yl)-1,2,4-oxadiazole] | 30% |
| CC(C)c1noc(N2CCC(C(C)Oc3nc4ccc(-c5ccc(Cl)nc5)nc4s3)CC2)n1 (stereo not drawn) [Compound 1142, 2-(1-(1-(3-isopropyl-1,2,4-oxadiazol-5-yl)piperidin-4-yl)ethoxy)-5-(6-chloropyridin-3-yl)thiazolo[5,4-b]pyridine] | 72% |
| CC(C)c1noc(N2CCC(C(C)Oc3nc4ccc(-c5ccc(N6CCNC6=O)nc5)nc4s3)CC2)n1 (stereo not drawn) [Compound 1144, 1-(5-(2-(1-(1-(3-isopropyl-1,2,4-oxadiazol-5-yl)piperidin-4-yl)ethoxy)thiazolo[5,4-b]pyridin-5-yl)pyridin-2-yl)imidazolidin-2-one] | 69% |
| CC(C)c1noc(N2CCC([C@H](C)Oc3nc4ncc(-c5ccc(S(C)(=O)=O)nc5)nc4s3)CC2)n1 [Compound 1114, (S)-3-isopropyl-5-(4-(1-((6-(6-(methyslulfonyl)pyridin-3-yl)thiazolo[4,5-b]pyrazin-2-yl)oxy)ethyl)piperidin-1-yl)-1,2,4-oxadiazole] | 75% |
| CC(C)c1noc(N2CCC(C(C)Oc3nc4ccc(-c5cnsc5)nc4s3)CC2)n1 (stereo not drawn) [Compound 1124, 2-(1-(1-(3-isopropyl-1,2,4-oxadiazol-5-yl)piperidin-4-yl)ethoxy)-5-(isothiazol-4-yl)thiazolo[5,4-b]pyridine] | 30% |
| CC(C)c1noc(N2CCC([C@H](C)Oc3nc4ccc(-c5ccc(C(=O)N(C)C)cc5)nc4s3)CC2)n1 [Compound 1045, (S)-4-(2-(1-(1-(3-isopropyl-1,2,4-oxadiazol-5-yl)piperidin-4-yl)ethoxy)thiazolo[5,4-b]pyridin-5-yl)-N,N-dimethylbenzamide] | 31% |
| CC(C)c1noc(N2CCC(C(C)Oc3nc4ccc(-c5ccc(C(=O)NC6CC6)cc5)nc4s3)CC2)n1 (stereo not drawn) [Compound 1049, N-cyclopropyl-4-(2-(1-(1-(3-isopropyl-1,2,4-oxadiazol-5-yl)piperidin-4-yl)ethoxy)thiazolo[5,4-b]pyridin-5-yl)benzamide] | 14% |
| CC(C)c1noc(C2CCN(c3nc4ccc(-c5ccc(C(=O)N(C)C)cc5)nc4s3)CC2)n1 [Compound 1022, 4-(2-(4-(3-isopropyl-1,2,4-oxadiazol-5-yl)piperidin-1-yl)thiazolo[5,4-b]pyridin-5-yl)-N,N-dimethylbenzamide] | 35% |
| CC(C)c1noc(N2CCC([C@H](C)Oc3nc4ccc(-c5ccnc(F)c5)nc4s3)CC2)n1 [Compound 1093, (S)-5-(4-(1-((5-(2-fluoropyridin-4-yl)thiazolo[5,4-b]pyridin-2-yl)oxy)ethyl)piperidin-1-yl)-3-isopropyl-1,2,4-oxadiazole] | 82% |
| CC(C)c1noc(N2CCC(C(C)Oc3nc4ncc(-c5ccc(S(C)(=O)=O)cc5)nc4s3)CC2)n1 (stereo not drawn) [Compound 1108, 3-isopropyl-5-(4-(1-((6-(4-(methylsulfonyl)phenyl)thiazolo[4,5-b]pyrazin-2-yl)oxy)ethyl)piperidin-1-yl)-1,2,4-oxadiazole] | 65% |
| CC(C)c1noc(N2CCC([C@H](C)Oc3nc4ccc(-c5ccc(S(C)(=O)=O)nc5)nc4s3)C2)n1 (stereo partly drawn) [Compound 1141, 2-((S)-1-(-(3-isopropyl-1,2,4-oxadiazol-5-yl)pyrrolidin-3-yl)ethoxy)-5-(6-(methylsulfonyl)pyridin-3-yl)thiazolo[5,4-b]pyridine] | 3% |

Same assay, conditions: cAMP

| EC50 | Structure (SMILES) |
| --- | --- |
| 50 to 100 nM | CC(C)c1noc(N2CCC([C@H](C)Oc3nc4ncc(-c5ccc(S(C)(=O)=O)nc5)nc4s3)CC2)n1 [Compound 1114, (S)-3-isopropyl-5-(4-(1-((6-(6-(methyslulfonyl)pyridin-3-yl)thiazolo[4,5-b]pyrazin-2-yl)oxy)ethyl)piperidin-1-yl)-1,2,4-oxadiazole] |
| < 25 nM | CC(C)c1noc(N2CCC([C@H](C)Oc3nc4ccc(-c5ccnc(F)c5)nc4s3)CC2)n1 [Compound 1093, (S)-5-(4-(1-((5-(2-fluoropyridin-4-yl)thiazolo[5,4-b]pyridin-2-yl)oxy)ethyl)piperidin-1-yl)-3-isopropyl-1,2,4-oxadiazole] |
